From patent US8142760B2, “Vaccination for Lawsonia intracellularis” (priority 2008, dated 2012) come the findings set out here.

This assay has as its system Lawsonia intracellularis. In words: Fecal PCR for L. intracellularis in pigs after controlled exposure. In kind it is in vivo. The note with it: day 28, after 14 days of MECADOX 50 g/ton in feed started 14 days post inoculation. From the text: Four groups of pigs totaling 1409 pigs, between 8 and 10 weeks of age and sourced from a single nursery site, were moved to a finishing barn containing four separate rooms. The barn was filled over four consecutive weeks, filling one room per week. Each group of approximately 350 pigs was weighed as a group before placement into a barn room. The four rooms were alternately assigned to two treatment groups, inoculated (T1) and non-inoculated (T2). Sixteen animals per room were randomly selected and individually identified with ear tags.
On day 0, T1 pigs received inoculum of mucosal homogenate from PE-diseased intestine. Samples of inoculum were submitted to a diagnostic lab for quantification of L. intracellularis organisms before administration. The inoculum was delivered to each pen through the watering system and calibrated to deliver an average dose of 10^5±10 L. intracellularis organisms per pig over a 4-6 hour period. T2 pigs received no inoculum.
All pigs received MECADOX (carbadox) (50 g/ton) for at least 14 days in their nursery diets and up until day −3. Non-medicated feed was fed days −3 to 14 (exposure period) to both treatment groups. MECADOX (carbadox) 50 grams/ton medicated feed was fed to all pigs on days 14 to 28. From day 28 to end of study, all pigs received non-medicated feed. […]

`COC(=O)N/N=C/c1c[n+]([O-])c2ccccc2[n+]1[O-]` [MECADOX (carbadox), carbadox]: the “sampled, infected pigs negative by fecal PCR for L. intracellularis” value is listed as 100%.
